# Results from patent US20250179066A1, “ZWITTERIONIC ANTIBACTERIAL COMPOUNDS” (Hoffmann-La Roche Inc., priority 2022, published 2025).
# Test system: Acinetobacter baumannii ATCC17961
# Assay: Antimicrobial susceptibility testing: 90% growth inhibitory concentration (IC90) determination
# Format: cell-based
# Settings: Acinetobacter baumannii, ATCC17961, 16 h, 90% growth inhibitory concentration against Acinetobacter baumannii ATCC17961, Iso-Sensitest broth, OD 600 nm over 16 h; read-out: ATCC 17961 IC90
# Outline: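 OD600 monitored each minute over 16 h at 35±2° C for bacteria (~5×10^5 CFU/mL final) in Iso-Sensitest medium with 10-point twofold compound series (e.g. 10-0.0195 μM final). Concentration giving 90% growth inhibition in log phase reported as IC90.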
row,Compound,IC90 [µM]
1,"CNC(=O)c1c[nH]c2cc(-n3cc(-c4cnc(C(=O)Nc5ccc(C(=O)N6CCN(C(=O)[C@H]7CC[N@+](CC(=O)O)(CC8CNC8)CC7)CC6)c(Cl)c5)n4C)c(C(F)(F)F)n3)ncc12 [Example 156, cis-2-[1-(azetidin-3-ylmethyl)-4-[4-[2-chloro-4-[[1-methyl-5-[1-[3-(methylcarbamoyl)-1H-pyrrolo[3,2-c]pyridin-6-yl]-3-(trifluoromethyl)pyrazol-4-yl]imidazole-2-carbonyl]amino]benzoyl]piperazine-1-carbonyl]piperidin-1-ium-1-yl]acetic acid. 1:1 2,2,2-trifluoroacetate]",0.156
2,"Cn1c(-c2cn(-c3cc4[nH]cc(C(N)=O)c4cn3)nc2C(F)(F)F)cnc1C(=O)Nc1ccc(C(=O)N2CCN(C(=O)[C@H]3CC[N@+](CC(=O)O)(CC4CNC4)CC3)CC2)c(Cl)c1 [Example 157, cis-2-[1-(azetidin-3-ylmethyl)-4-[4-[4-[[5-[1-(3-carbamoyl-1H-pyrrolo[3,2-c]pyridin-6-yl)-3-(trifluoromethyl)pyrazol-4-yl]-1-methyl-imidazole-2-carbonyl]amino]-2-chloro-benzoyl]piperazine-1-carbonyl]piperidin-1-ium-1-yl]acetic acid. 1:1 2,2,2-trifluoroacetate]",0.368
3,"CN(C)S(=O)(=O)n1c(CCO)cc2cnc(-n3cc(-c4cnc(C(=O)Nc5ccc(C(=O)N6CCN(C(=O)[C@H]7CC[N@+](CC(=O)O)(CC8CNC8)CC7)CC6)c(Cl)c5)n4C)c(C(F)(F)F)n3)cc21 [Example 158, cis-2-[1-(azetidin-3-ylmethyl)-4-[4-[2-chloro-4-[[5-[1-[1-(dimethylsulfamoyl)-2-(2-hydroxyethyl)pyrrolo[3,2-c]pyridin-6-yl]-3-(trifluoromethyl)pyrazol-4-yl]-1-methyl-imidazole-2-carbonyl]amino]benzoyl]piperazine-1-carbonyl]piperidin-1-ium-1-yl]acetic acid;formate]",0.783
4,"Cn1c(-c2cn(-c3ccc(N)cc3F)nc2C(F)(F)F)cnc1C(=O)Nc1ccc(C(=O)N2CCN(C(=O)C3CC[N+](CCCO)(CC(=O)O)CC3)CC2)c(Cl)c1 (stereo not shown) [Example 159, 2-[4-[4-[4-[[5-[1-(4-amino-2-fluoro-phenyl)-3-(trifluoromethyl)pyrazol-4-yl]-1-methyl-imidazole-2-carbonyl]amino]-2-chloro-benzoyl]piperazine-1-carbonyl]-1-(3-hydroxypropyl)piperidin-1-ium-1-yl]acetic acid. 1:1 2,2,2-trifluoroacetate]",0.647
5,"Cn1c(-c2cn(-c3ccc4[nH]c(C[C@H](O)CO)cc4n3)nc2C(F)(F)F)cnc1C(=O)Nc1ccc(C(=O)N2CCN(C(=O)[C@H]3CC[N@+](CC(=O)O)(CC4CNC4)CC3)CC2)c(Cl)c1 [Example 160, cis-2-[1-(azetidin-3-ylmethyl)-4-[4-[2-chloro-4-[[5-[1-[2-[(2S)-2,3-dihydroxypropyl]-1H-pyrrolo[3,2-b]pyridin-5-yl]-3-(trifluoromethyl)pyrazol-4-yl]-1-methyl-imidazole-2-carbonyl]amino]benzoyl]piperazine-1-carbonyl]piperidin-1-ium-1-yl]acetic acid;formate]",0.474
6,"CC(Cn1ccc2nc(-n3cc(-c4cnc(C(=O)Nc5ccc(C(=O)N6CCN(C(=O)[C@H]7CC[N@+](CC(=O)O)(CC8CNC8)CC7)CC6)c(Cl)c5)n4C)c(C(F)(F)F)n3)ccc21)C(N)=O (stereo partly shown) [Example 161, 2-[4-[4-[4-[[5-[1-[1-(3-amino-2-methyl-3-oxo-propyl)pyrrolo[3,2-b]pyridin-5-yl]-3-(trifluoromethyl)pyrazol-4-yl]-1-methyl-imidazole-2-carbonyl]amino]-2-chloro-benzoyl]piperazine-1-carbonyl]-1-(azetidin-3-ylmethyl)piperidin-1-ium-1-yl]acetic acid;2,2,2-trifluoroacetate]",0.39
7,"Cn1c(-c2cn(-c3ccc4[nH]c(CCO)cc4n3)nc2C(F)(F)F)cnc1C(=O)Nc1ccc(C(=O)N2CCN(C(=O)[C@H]3CC[N@+](CC(=O)O)(CC4CNC4)CC3)CC2)c(Cl)c1 [Example 162, cis-2-[1-(azetidin-3-ylmethyl)-4-[4-[2-chloro-4-[[5-[1-[2-(2-hydroxyethyl)-1H-pyrrolo[3,2-b]pyridin-5-yl]-3-(trifluoromethyl)pyrazol-4-yl]-1-methyl-imidazole-2-carbonyl]amino]benzoyl]piperazine-1-carbonyl]piperidin-1-ium-1-yl]acetic acid;formate]",0.203
8,"Cn1c(-c2cn(-c3ccc(O)cc3F)nc2C(F)(F)F)cnc1C(=O)Nc1ccc(C(=O)N2CCN(C(=O)[C@H]3CC[N@+](CC(=O)O)(CC4CNC4)CC3)CC2)c(Cl)c1 [Example 163, cis-2-[1-(azetidin-3-ylmethyl)-4-[4-[2-chloro-4-[[5-[1-(2-fluoro-4-hydroxy-phenyl)-3-(trifluoromethyl)pyrazol-4-yl]-1-methyl-imidazole-3-carbonyl]amino]benzoyl]piperazine-1-carbonyl]piperidin-1-ium-1-yl]acetic acid. 1:1 2,2,2-trifluoroacetate]",0.19
9,"Cn1c(-c2cn(-c3ccc(NCC(C)(C)O)cc3F)nc2C(F)(F)F)cnc1C(=O)Nc1ccc(C(=O)N2CCN(C(=O)[C@H]3CC[N@+](CC(=O)O)(CC4CNC4)CC3)CC2)c(Cl)c1 [Example 164, cis-2-[1-(azetidin-3-ylmethyl)-4-[4-[2-chloro-4-[[5-[1-[2-fluoro-4-[(2-hydroxy-2-methyl-propyl)amino]phenyl]-3-(trifluoromethyl)pyrazol-4-yl]-1-methyl-imidazole-2-carbonyl]amino]benzoyl]piperazine-1-carbonyl]piperidin-1-ium-1-yl]acetic acid;formate]",0.163
10,"Cn1c(-c2cn(-c3ncc4[nH]ccc4n3)nc2C(F)(F)F)cnc1C(=O)Nc1ccc(C(=O)N2CCN(C(=O)[C@H]3CC[N@+](CC(=O)O)(CC4CNC4)CC3)CC2)c(Cl)c1 [Example 165, cis-2-[1-(azetidin-3-ylmethyl)-4-[4-[2-chloro-4-[[1-methyl-5-[1-(5H-pyrrolo[3,2-d]pyrimidin-2-yl)-3-(trifluoromethyl)pyrazol-4-yl]imidazole-2-carbonyl]amino]benzoyl]piperazine-1-carbonyl]piperidin-1-ium-1-yl]acetic acid;formate]",0.649
11,"Cn1c(-c2cn(-c3ccc(NCCN(CCN)CCN)cn3)nc2C(F)(F)F)cnc1C(=O)Nc1ccc(C(=O)N2CCN(C(=O)C3CC[N+](CC(=O)O)(CC4CNC4)CC3)CC2)c(Cl)c1 (stereo not drawn) [Example 166, cis-2-[1-(azetidin-3-ylmethyl)-4-[4-[4-[[5-[1-[5-[2-[bis(2-aminoethyl)amino]ethylamino]-2-pyridyl]-3-(trifluoromethyl)pyrazol-4-yl]-1-methyl-imidazole-2-carbonyl]amino]-2-chloro-benzoyl]piperazine-1-carbonyl]piperidin-1-ium-1-yl]acetic acid;formic acid;formate]",0.152
12,"Cn1c(-c2cn(-c3ccc4[nH]c(CC(N)=O)cc4n3)nc2C(F)(F)F)cnc1C(=O)Nc1ccc(C(=O)N2CCN(C(=O)[C@H]3CC[N@+](CC(=O)O)(CC4CNC4)CC3)CC2)c(Cl)c1 [Example 167, cis-2-[4-[4-[4-[[5-[1-[2-(2-amino-2-oxo-ethyl)-1H-pyrrolo[3,2-b]pyridin-5-yl]-3-(trifluoromethyl)pyrazol-4-yl]-1-methyl-imidazole-2-carbonyl]amino]-2-chloro-benzoyl]piperazine-1-carbonyl]-1-(azetidin-3-ylmethyl)piperidin-1-ium-1-yl]acetic acid;2,2,2-trifluoroacetate]",0.715
13,"Cn1c(-c2cn(-c3cc4c(ccn4CC(N)=O)cn3)nc2C(F)(F)F)cnc1C(=O)Nc1ccc(C(=O)N2CCN(C(=O)[C@H]3CC[N@+](CC(=O)O)(CC4CNC4)CC3)CC2)c(Cl)c1 [Example 168, cis-2-[4-[4-[4-[[5-[1-[1-(2-amino-2-keto-ethyl)pyrrolo[3,2-c]pyridin-6-yl]-3-(trifluoromethyl)pyrazol-4-yl]-1-methyl-imidazole-2-carbonyl]amino]-2-chloro-benzoyl]piperazine-1-carbonyl]-1-(azetidin-3-ylmethyl)piperidin-1-ium-1-yl]acetic Acid.1:1 2,2,2-trifluoroacetate]",0.555
14,"Cn1c(-c2cn(-c3ccc4c(cc(CO)n4CC#N)n3)nc2C(F)(F)F)cnc1C(=O)Nc1ccc(C(=O)N2CCN(C(=O)[C@H]3CC[N@+](CC(=O)O)(CC4CNC4)CC3)CC2)c(Cl)c1 [Example 169, cis-2-[1-(azetidin-3-ylmethyl)-4-[4-[2-chloro-4-[[5-[1-[1-(cyanomethyl)-2-methylol-pyrrolo[3,2-b]pyridin-5-yl]-3-(trifluoromethyl)pyrazol-4-yl]-1-methyl-imidazole-2-carbonyl]amino]benzoyl]piperazine-1-carbonyl]piperidin-1-ium-1-yl]acetic acid. 1:1 2,2,2-trifluoroacetate]",0.466
15,"Cn1c(-c2cn(-c3ccc(N)cc3F)nc2C(F)(F)F)cnc1C(=O)Nc1ccc(C(=O)N2CCN(C(=O)[C@H]3CC[N@@+](CCCN)(CC(=O)O)CC3)CC2)c(Cl)c1 [Example 170, cis-2-[4-[4-[4-[[5-[1-(4-amino-2-fluoro-phenyl)-3-(trifluoromethyl)pyrazol-4-yl]-1-methyl-imidazole-2-carbonyl]amino]-2-chloro-benzoyl]piperazine-1-carbonyl]-1-(3-aminopropyl)piperidin-1-ium-1-yl]acetic acid. 1:1 2,2,2-trifluoroacetate]",0.199
16,"Cn1c(-c2cn(-c3ccc4[nH]c(CO)cc4n3)nc2C(F)(F)F)cnc1C(=O)Nc1ccc(C(=O)N2CCN(C(=O)[C@H]3CC[N@@+](CCCN)(CC(=O)O)CC3)CC2)c(Cl)c1 [Example 171, cis-2-[1-(3-aminopropyl)-4-[4-[2-chloro-4-[[1-methyl-5-[1-(2-methylol-1H-pyrrolo[3,2-b]pyridin-5-yl)-3-(trifluoromethyl)pyrazol-4-yl]imidazole-2-carbonyl]amino]benzoyl]piperazine-1-carbonyl]piperidin-1-ium-1-yl]acetic acid. 1:1 2,2,2-trifluoroacetate]",0.281
